Data published in patent US20250171437A1 (Agios Pharmaceuticals,Inc., priority 2022, published 2025).

These compounds were tested against T1, human PAH with the R408W mutation (A375 R408W cells) (Homo sapiens, UniProt P00439, R408W) (assay: Cell Based Phenylalanine Flux Assay). Conditions: A375 R408W cells; 24 hrs with compound, then 20 μM sepiapterin and 800 μM 13C9,15N-Phenylalanine for 4 hours; 13C-Tyrosine by LC-MS; average where tested multiple times.
T1 construct: expressed in transfected cells
T1 sequence (P00439 1-452 R408W): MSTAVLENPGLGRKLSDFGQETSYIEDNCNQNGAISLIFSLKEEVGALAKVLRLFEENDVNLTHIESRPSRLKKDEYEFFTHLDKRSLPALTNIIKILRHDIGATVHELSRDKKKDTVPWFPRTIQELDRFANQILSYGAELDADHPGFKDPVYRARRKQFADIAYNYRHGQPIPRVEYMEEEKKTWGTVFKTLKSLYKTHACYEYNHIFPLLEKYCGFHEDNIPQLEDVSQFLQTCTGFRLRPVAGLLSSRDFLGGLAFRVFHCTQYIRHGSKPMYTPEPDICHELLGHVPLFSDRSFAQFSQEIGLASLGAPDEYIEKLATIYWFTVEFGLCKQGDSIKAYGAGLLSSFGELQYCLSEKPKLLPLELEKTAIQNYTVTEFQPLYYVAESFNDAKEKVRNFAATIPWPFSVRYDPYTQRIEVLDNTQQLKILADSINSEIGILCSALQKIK
In short: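 Phenylalanine-to-tyrosine flux is measured in A375 cells carrying stable human R408W PAH. After 24 h compound exposure, 13C9,15N-Phe (800 μM) with sepiapterin (20 μM) is supplied for 4 h and media 13C-Tyr is read by LC-MS; AC50s are binned.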
An AC50 of at most 500 nM was found for `Cc1c(F)ccc2oc([C@@H]3c4nc[nH]c4CCN3C(=O)c3ocnc3C(F)F)nc12` [Example 722, (S)-(4-(difluoromethyl)oxazol-5-yl)(4-(5-fluoro-4-methylbenzo[d]oxazol-2-yl)-6,7-dihydro-1H-imidazo[4,5-c]pyridin-5(4H)-yl)methanone] in this work.
An AC50 of at most 500 nM was found for `COc1cc(F)c2oc([C@@H]3c4nc[nH]c4CCN3C(=O)c3oc(C(C)(C)O)nc3C(F)F)nc2c1` [Example 643, (S)-(4-(difluoromethyl)-2-(2-hydroxypropan-2-yl)oxazol-5-yl)(4-(7-fluoro-5-methoxybenzo[d]oxazol-2-yl)-6,7-dihydro-1H-imidazo[4,5-c]pyridin-5(4H)-yl)methanone] in this work.
An AC50 of 500 to 1000 nM was found for `Cn1nc(Br)nc1C(=O)N1CCc2[nH]cnc2[C@H]1c1nc2c(F)cccc2o1` [Example 471, (S)-(3-bromo-1-methyl-1H-1,2,4-triazol-5-yl)(4-(4-fluorobenzo[d]oxazol-2-yl)-6,7-dihydro-1H-imidazo[4,5-c]pyridin-5(4H)-yl)methanone] in this work.
An AC50 of 1000 to 5000 nM was found for `Cn1cc(-c2nnc(C(=O)N3CCc4[nH]cnc4[C@@H]3c3nc4c(F)cc(F)cc4o3)o2)cn1` [Example 521, (R)-(4-(4,6-difluorobenzo[d]oxazol-2-yl)-6,7-dihydro-1H-imidazo[4,5-c]pyridin-5(4H)-yl)(5-(1-methyl-1H-pyrazol-4-yl)-1,3,4-oxadiazol-2-yl)methanone] in this work.
An AC50 of 500 to 1000 nM was found for `CC(F)(F)c1ncoc1C(=O)N1CCc2[nH]cnc2[C@@H]1c1nc2ccc(F)cc2o1` [Example 650, (R)-(4-(1,1-difluoroethyl)oxazol-5-yl)(4-(6-fluorobenzo[d]oxazol-2-yl)-6,7-dihydro-1H-imidazo[4,5-c]pyridin-5(4H)-yl)methanone] in this work.
An AC50 of 1000 to 5000 nM was found for `CC(F)(F)c1ncoc1C(=O)N1CCc2[nH]cnc2[C@@H]1c1nc2c(F)cccc2o1` [Example 652, (R)-(4-(1,1-difluoroethyl)oxazol-5-yl)(4-(4-fluorobenzo[d]oxazol-2-yl)-6,7-dihydro-1H-imidazo[4,5-c]pyridin-5(4H)-yl)methanone] in this work.
An AC50 of 500 to 1000 nM was found for `O=C(c1ccnn1C(F)(F)F)N1CCc2[nH]cnc2[C@H]1c1nc2cccc(F)c2o1` [Example 289, (S)-(4-(7-fluorobenzo[d]oxazol-2-yl)-6,7-dihydro-1H-imidazo[4,5-c]pyridin-5(4H)-yl)(1-(trifluoromethyl)-1H-pyrazol-5-yl)methanone] in this work.
An AC50 of 500 to 1000 nM was found for `O=C(c1ccnn1C(F)(F)F)N1CCc2[nH]cnc2[C@H]1c1nc2ccc(F)cc2o1` [Example 287, (S)-(4-(6-fluorobenzo[d]oxazol-2-yl)-6,7-dihydro-1H-imidazo[4,5-c]pyridin-5(4H)-yl)(1-(trifluoromethyl)-1H-pyrazol-5-yl)methanone] in this work.
An AC50 of 1000 to 5000 nM was found for `O=C(c1cnn2cc(-c3ccccn3)ccc12)N1CCc2[nH]cnc2[C@@H]1c1nc2c(F)cccc2o1` [Example 544, (R)-(4-(4-fluorobenzo[d]oxazol-2-yl)-6,7-dihydro-1H-imidazo[4,5-c]pyridin-5(4H)-yl)(6-(pyridin-2-yl)pyrazolo[1,5-a]pyridin-3-yl)methanone] in this work.
An AC50 of 1000 to 5000 nM was found for `CC(C)(O)c1nc(Br)c(C(=O)N2CCc3[nH]cnc3[C@@H]2c2nc3cc(F)ccc3o2)o1` [Example 123, (R)-(4-bromo-2-(2-hydroxypropan-2-yl)oxazol-5-yl)(4-(5-fluorobenzo[d]oxazol-2-yl)-6,7-dihydro-1H-imidazo[4,5-c]pyridin-5(4H)-yl)methanone] in this work.
An AC50 of 1000 to 5000 nM was found for `Cc1nn(C)cc1-c1nnc(C(=O)N2CCc3[nH]cnc3[C@H]2c2nc3cc(F)ccc3o2)o1` [Example 881, (S)-(5-(1,3-dimethyl-1H-pyrazol-4-yl)-1,3,4-oxadiazol-2-yl)(4-(5-fluorobenzo[d]oxazol-2-yl)-6,7-dihydro-1H-imidazo[4,5-c]pyridin-5(4H)-yl)methanone] in this work.
An AC50 of at most 500 nM was found for `Cc1ccc2nc([C@@H]3c4nc[nH]c4CCN3C(=O)c3oc(C(C)(C)O)nc3C(F)F)oc2c1` [Example 315, (S)-(4-(difluoromethyl)-2-(2-hydroxypropan-2-yl)oxazol-5-yl)(4-(6-methylbenzo[d]oxazol-2-yl)-6,7-dihydro-1H-imidazo[4,5-c]pyridin-5(4H)-yl)methanone] in this work.
An AC50 of at least 5000 nM was found for `COCc1ccc2c(C(=O)N3CCc4[nH]cnc4[C@@H]3c3nc4cc(C)ccc4o3)cnn2c1` [Example 878, (R)-(6-(methoxymethyl)pyrazolo[1,5-a]pyridin-3-yl)(4-(5-methylbenzo[d]oxazol-2-yl)-6,7-dihydro-1H-imidazo[4,5-c]pyridin-5(4H)-yl)methanone] in this work.
An AC50 of at least 5000 nM was found for `O=C(c1cnn2cc(-c3ccccn3)ccc12)N1CCc2[nH]cnc2[C@@H]1c1nc2cc(F)ccc2o1` [Example 82, (R)-(4-(5-fluorobenzo[d]oxazol-2-yl)-6,7-dihydro-1H-imidazo[4,5-c]pyridin-5(4H)-yl)(6-(pyridin-2-yl)pyrazolo[1,5-a]pyridin-3-yl)methanone] in this work.
An AC50 of at most 500 nM was found for `Cn1cc(-c2nc(C(F)(F)F)c(C(=O)N3CCc4[nH]cnc4[C@@H]3c3nc4cccc(F)c4o3)o2)cn1` [Example 670, (R)-(4-(7-fluorobenzo[d]oxazol-2-yl)-6,7-dihydro-1H-imidazo[4,5-c]pyridin-5(4H)-yl)(2-(1-methyl-1H-pyrazol-4-yl)-4-(trifluoromethyl)oxazol-5-yl)methanone] in this work.
An AC50 of at most 500 nM was found for `CC(C)(O)c1nc(C(F)(F)F)c(C(=O)N2CCc3[nH]cnc3[C@H]2c2nc3cc(F)ccc3o2)o1` [Example 45, (S)-(4-(5-fluorobenzo[d]oxazol-2-yl)-6,7-dihydro-1H-imidazo[4,5-c]pyridin-5(4H)-yl)(2-(2-hydroxypropan-2-yl)-4-(trifluoromethyl)oxazol-5-yl)methanone] in this work.
An AC50 of 1000 to 5000 nM was found for `CC(C)(F)c1ncc(C(=O)N2CCc3[nH]cnc3[C@@H]2c2nc3cc(F)ccc3o2)o1` [Example 14, (R)-(4-(5-fluorobenzo[d]oxazol-2-yl)-6,7-dihydro-1H-imidazo[4,5-c]pyridin-5(4H)-yl)(2-(2-fluoropropan-2-yl)oxazol-5-yl)methanone] in this work.
An AC50 of 1000 to 5000 nM was found for `Cc1cccc2oc([C@H]3c4nc[nH]c4CCN3C(=O)c3cnco3)nc12` [Example 510, (R)-(4-(4-methylbenzo[d]oxazol-2-yl)-6,7-dihydro-1H-imidazo[4,5-c]pyridin-5(4H)-yl)(oxazol-5-yl)methanone] in this work.
An AC50 of 1000 to 5000 nM was found for `CC(C)(O)c1nc(C(F)F)c(C(=O)N2CCc3[nH]cnc3[C@@H]2c2nc3ccc(F)cc3o2)o1` [Example 188, (R)-(4-(difluoromethyl)-2-(2-hydroxypropan-2-yl)oxazol-5-yl)(4-(6-fluorobenzo[d]oxazol-2-yl)-6,7-dihydro-1H-imidazo[4,5-c]pyridin-5(4H)-yl)methanone] in this work.
An AC50 of at most 500 nM was found for `O=C(c1ocnc1C(F)F)N1CCc2[nH]cnc2[C@@H]1c1nc2cccc(Cl)c2o1` [Example 426, (R)-(4-(7-chlorobenzo[d]oxazol-2-yl)-6,7-dihydro-1H-imidazo[4,5-c]pyridin-5(4H)-yl)(4-(difluoromethyl)oxazol-5-yl)methanone] in this work.
An AC50 of at most 500 nM was found for `O=C(c1nnc(-c2ccccn2)o1)N1CCc2[nH]cnc2[C@H]1c1nc2c(F)ccc(F)c2o1` [Example 520, (S)-(4-(4,7-difluorobenzo[d]oxazol-2-yl)-6,7-dihydro-1H-imidazo[4,5-c]pyridin-5(4H)-yl)(5-(pyridin-2-yl)-1,3,4-oxadiazol-2-yl)methanone] in this work.
An AC50 of at least 5000 nM was found for `O=C(CCc1ncco1)N1CCc2[nH]cnc2[C@@H]1c1nc2cccc(F)c2o1` [Example 388, (R)-1-(4-(7-fluorobenzo[d]oxazol-2-yl)-6,7-dihydro-1H-imidazo[4,5-c]pyridin-5(4H)-yl)-3-(oxazol-2-yl)propan-1-one] in this work.
An AC50 of at least 5000 nM was found for `Cc1cccc2oc([C@H]3c4nc[nH]c4CCN3C(=O)c3cnn4cc(N5CCC(O)CC5)ccc34)nc12` [Example 702, (R)-(6-(4-hydroxypiperidin-1-yl)pyrazolo[1,5-a]pyridin-3-yl)(4-(4-methylbenzo[d]oxazol-2-yl)-6,7-dihydro-1H-imidazo[4,5-c]pyridin-5(4H)-yl)methanone] in this work.
An AC50 of 500 to 1000 nM was found for `Cc1ccc2nc([C@@H]3c4nc[nH]c4CCN3C(=O)c3oc(C(C)(C)O)nc3C)oc2c1` [Example 319, (S)-(2-(2-hydroxypropan-2-yl)-4-methyloxazol-5-yl)(4-(6-methylbenzo[d]oxazol-2-yl)-6,7-dihydro-1H-imidazo[4,5-c]pyridin-5(4H)-yl)methanone] in this work.

Same assay, conditions: A375 cells expressing R408W PAH; 24 hrs with compound, then 20 μM sepiapterin and 800 μM 13C9,15N-Phenylalanine for 4 hours; 13C-Tyrosine by LC-MS; average where tested multiple times
An AC50 of at least 5000 nM was found for `O=C(c1cn[nH]c1C(F)F)N1CCc2[nH]cnc2C1c1nc2cc(F)ccc2o1` (centres unmarked) in this work.
An AC50 of 1000 to 5000 nM was found for `O=C(c1cnc(-c2ccccn2)s1)N1CCc2[nH]cnc2C1c1nc2ccc(Br)cc2o1` (centres unmarked) in this work.
An AC50 of at least 5000 nM was found for `Cc1ccc2nc(C3c4nc[nH]c4CCN3C(=O)c3cnn4cc(CCN(C)C)ccc34)oc2c1` (centres unmarked) in this work.
An AC50 of 1000 to 5000 nM was found for `CC(C)(O)c1noc(C(=O)N2CCc3[nH]cnc3C2c2nc3cccc(F)c3o2)n1` (centres unmarked) in this work.
An AC50 of 1000 to 5000 nM was found for `Cc1ccc2nc(C3c4nc[nH]c4CCN3C(=O)c3cnn4cc(CN(C)C)ccc34)oc2c1` (centres unmarked) in this work.
